Consider four compounds from patent US7947661B2, “Compounds for the treatment of marihuana dependence, withdrawal, and usage” (priority 2004, dated 2011).

The conditions of series [1]: cited from earlier work.
In series [2] the test system is cocaine-dependent subjects. The experiment in a line: Weekly marihuana use from daily diaries, citicoline vs placebo for 8 weeks. The following applies: citicoline treatment weeks 3-10, not dependent on cannabis. It counts as in vivo, human. The procedure: FIG. 1 is a graph of a time course of weekly marihuana use in citicoline- and placebo-treated cocaine-dependent subjects. Subjects were treated with either citicoline or placebo for 8 weeks and then asked to keep track of their drug use patterns via a daily diary. Follow up weeks were conducted under a no drug condition.
Compared to placebo treatment, marihuana use was reduced during citicoline treatment (weeks 3-10) as reported using the daily diaries. […] There is a group difference at baseline; this difference occurred because subjects were not matched for marihuana use in this study, and these subjects were not dependent on cannabis.

A further series relates to cocaine dependent person. The experiment in a line: Wrist accelerometer (ActiWatch) sleep wake activity and marihuana cigarettes in a representative subject. It counts as in vivo, human. The following applies: 500 mg twice daily citicoline, days 10-14 vs baseline. The procedure:
FIG. 2 is a graph of activity of a representative cocaine dependent person two weeks prior to (Baseline) and two weeks after (Citicoline) treatment with citicoline. […] Marihuana cigarettes are depicted by the arrows. Each strip recording is a 24 hour period of consecutive days. Activity was determined by use of an accelerometer worn on the subject'[…] Score). Data in FIG. 2 also show a decrease in the number of marihuana cigarettes smoked and a more normalized, diurnal sleep pattern after treatment with citicoline. Subjects were given either placebo or 500 mg, twice daily of citicoline. […] The subject's binge use of marihuana (arrows on second day) is clearly defined. The bottom 4 tracings of FIG. 2 show the same subject on days 10-14 of citicoline treatment. […] This pattern continued throughout the 8 weeks of treatment for this subject.

For series [3] the following is noted: cited from earlier work. The source holds these as a separate data set.
The conditions of series [4]: cited from earlier work. The source holds these as a separate data set.

As to `CC(=O)OC[C@H]1O[C@@H](n2ccc(=O)[nH]c2=O)[C@H](OC(C)=O)[C@@H]1OC(C)=O` [triacetyl uridine], in series [1], the tolerability in mammals entry is “well tolerated”.
Take `O=c1ccn([C@@H]2O[C@H](CO)[C@@H](O)[C@H]2O)c(=O)[nH]1` [uridine]: in series [1], the tolerability in humans entry is on record as “well tolerated” and the tolerability in mammals result was “well tolerated”.
For `CN(CC(=O)O)C(=N)N` [Creatine, creatine], the tolerability in humans entry in series [1] was “well tolerated at relatively high doses”.
For `C[N+](C)(C)CCOP(=O)(O)OP(=O)([O-])OC[C@H]1O[C@@H](n2ccc(N)nc2=O)[C@H](O)[C@@H]1O` [CDP-choline, cytidine 5′-diphosphocholine], in series [2], the “marihuana use (cigarettes per week, daily diaries) compared to placebo” value is “reduced”. Moreover, the “number of marihuana cigarettes smoked” value in the series on cocaine dependent person is given as “decrease”. The “sleep wake profile (accelerometer activity)” value in the series on cocaine dependent person (continued throughout 8 weeks) was “more normalized diurnal pattern of sleeping at night and became more active during the day”. For the same compound, the “conversion into circulating metabolites” value in series [3] (administered either orally or intravenously) was “rapidly converted into the two major circulating metabolites, choline and cytidine”. In addition, in series [3] (orally administered), the “CDP-choline and/or its metabolites absorbed” value is given as “more than 99%” and the excreted in feces result was “less than 1%”. In series [3] (share of dose), the excretion via lung is 12.9%; the excretion via urine is 2.4%; the “rest of the dose metabolized and retained in tissues” value is 83.9%. Moreover, in series [4] (in vivo), the reported overdoses entry is recorded as “no reported cases of overdoses”. Also, the “toxicity symptoms on ingestion of large amounts” value in series [4] (preclinical studies) is “common cholinergic symptoms (salivation, lacrimation, urination, defecation, and vomiting)”. Further, in series [1], the tolerability in mammals entry was “well tolerated”.
